Data on one compound can be found in patent publication US20240016774A1, “IMPLANTABLE DEPOTS FOR LOCALIZED, SUSTAINED, CONTROLLED RELEASE OF THERAPEUTIC AGENTS TO TREAT CANCER AND RELATED CONDITIONS” (Foundry Therapeutics, Inc., priority 2020, published 2024).

This data set is described as follows: in vitro drug release (elution) in PBS at 37° C. It is filed as physicochemical. As to conditions: docetaxel powder, milled vs unmilled. On the procedure:
Using docetaxel as the example drug, and 10:10:80 PEG10K:PLGA5050:Doce as the baseline formulation for comparison, we show below various novel formulations that can increase in vitro drug elution rates as tested in PBS at 37° C. 10:10:80 PEG10K:PLGA5050:Doce was the formulation that was evaluated in our preclinical studies. Average cumulative drug release % values with linear trend line from the first 14 days were plotted, as shown in FIG. 114. • Baseline=PEG:PLGA:Doce 10:10:80 Rod • Fast=PEG:PLGA:Doce 50:10:40 Rod • Faster=PEG:Doce 60:40 Rod • Raw docetaxel powder, milled or unmilled • Fastest=PEG:Doce 1:1 Particles
The mechanism of how each of these novel formulations can achieve increased in vitro drug release rate compared to the baseline 10:10:80 PEG10K:PLGA5050:Doce formulation is explained below. We have developed multiple formulations with tunable drug release rates that takes advantage of either decreasing hydrophobicity (by increasing PEG content) or introducing predominantly molecularly dispersed drug into the polymer matrix.

On to `CC(=O)O[C@@]12CO[C@@H]1C[C@H](O)[C@@]1(C)C(=O)[C@H](O)C3=C(C)[C@@H](OC(=O)[C@H](O)[C@@H](NC(=O)OC(C)(C)C)c4ccccc4)C[C@@](O)([C@@H](OC(=O)c4ccccc4)[C@H]21)C3(C)C` [docetaxel], for which the “dissolution rate after milling” value was “does not significantly increase dissolution rate even after milling”.
